The values below come from patent US12421254B2, “KRAS modulators and uses thereof” (Quanta Therapeutics, Inc., priority 2023, dated 2025).

Molecules are shown by their SMILES. Where only a bound is given, the exact number is not on record here.

The subject of assay [1] is phospho-ERK in SW620 (KRAS-G12V) cells. As to the kind of experiment: pERK In Cell Western (ICW) assay (Method B), SW620. In kind it is cell-based. As to conditions: Homo sapiens, SW-620, 3 h, Table 4. As for the experimental part:
pERK ICW is a high throughput screening assay to evaluate the cellular potency of mutant KRAS small molecule inhibitors. KRAS mutant cell lines AGS, GP2D (KRAS-G12D) as well as SW620 (KRAS-G12V) were purchased from ATCC and maintained respectively in RPMI/DMEM/RPMI medium supplemented with 10% fetal bovine serum.
Cells grown in exponential phase were trypsinized, resuspended in fresh media, and viable cells were counted using a cell counter with Trypan Blue (BioRad TC20). Cells were seeded into 384-well plate (Greiner 781091) at density of 5,000 cells/well for AGS and 10,000 cells/well for GP2D/SW620 and allowed to grow overnight in a 37° C. CO2 incubator. The next day, compounds were dispensed into wells with a ½ log, 9-point serial dilution using a Tecan D300e dispenser and incubated for 3 hours in a 37° C. CO2 incubator. Cells were then fixed with paraformaldehyde (Electron Microscopy Sciences, 15710, 4% final concentration) for 30 min, permeabilized with wash buffer (1×PBS+0.1% Triton X-100) for 30 min and blocked with Odyssey blocking buffer (Li—COR 927-70001) for 1 hour, all at room temperature (RT). Phospho-ERK antibody (CST 4370L) was diluted 1:500 in Odyssey T20 (PBS) antibody diluent (Li—COR 927-75001) and incubated with cells overnight at 4° C. The next day, plates were washed 5× with wash buffer, incubated with IRDye 800 CW, Goat anti-Rabbit secondary antibody (Li—COR 926-32211, 1:800) and DRAQ5 (CST 4084L, 1:5,000) diluted in Odyssey T20 (PBS) antibody diluent for 1 hour, washed 5×, and imaged on an Odyssey CLx imaging system.
For data analysis, signal intensities from 800 (phosphor-ERK) and 700 (DRAQ5) channels were extracted, and phospho-ERK signals were normalized to DRAQ5 signals for each well and percent of blank control values were computed. Data were then imported into Graphpad Prism to compute half-maximal inhibitory concentrations (IC50) using a 4-parameter variable slope model. Z-factor for each plate was computed from signals derived from wells treated with either DMSO or 5 μM of control compound. AGS pERK ICW (Method B) IC50 (uM) values of selected compounds are depicted in Table 2 with compounds having a value ≥0.001 uM to 0.01 uM as ++++; ≥0.01 uM to 0.1 uM as +++; ≥0.1 uM to 1 uM as ++; ≥1 uM to 10 uM as + and ≥10 uM as NA.

The target in assay [2] is GST-tagged KRAS-G12V (2-169) (Homo sapiens, UniProt P01116, G12V). As to the kind of experiment: Nucleotide exchange assay (NEA), SOS-mediated, HTRF, KRAS G12V. To be noted: Table 4; IC50 extracted at 90 min; 80 nM SOS. In kind it is biochemical. The method in brief:
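Exchange onto fluorescent GTP-DY-647P1 (150 nM final) catalysed by 80 nM SOS1cat was followed by Tb-anti-GST HTRF at RT for up to 90 min, after 1 h compound pre-incubation with 0.25 nM GST-tagged KRAS-G12V (2-169), pH 7.3. DMSO = 0%, no-SOS blank = 100%; 4-parameter IC50 taken at 90 min.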

The target in assay [3] is GST-tagged KRAS-G12D (2-169) (Homo sapiens, UniProt P01116, G12D). The experiment in a line: Nucleotide exchange assay (NEA), SOS-mediated, HTRF, KRAS G12D. As to conditions: Table 4; IC50 extracted at 30 min; 20 nM SOScat; read-out: NEA G12D IC50. Format: biochemical. In outline: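 SOS1cat-driven loading of fluorescent GTP-DY-647P1 (150 nM) onto GST-KRAS-G12D (2-169, 0.25 nM) read by time-resolved FRET; SOScat 20 nM, compound preincubated with KRAS 1 h at RT. Signal blanked to no-SOS reactions, normalized to DMSO; IC50 fitted from the 30-min read.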
A general note: Time-resolved FRET reads energy transfer from a long-lived donor to a nearby acceptor.

Chain of GST-tagged KRAS-G12V (2-169) (P01116 2-169 isoform P01116-2 G12V): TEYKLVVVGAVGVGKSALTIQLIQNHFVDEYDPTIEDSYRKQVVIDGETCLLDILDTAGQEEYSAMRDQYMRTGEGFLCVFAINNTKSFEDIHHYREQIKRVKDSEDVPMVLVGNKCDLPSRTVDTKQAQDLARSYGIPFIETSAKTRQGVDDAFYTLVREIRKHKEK
Chain of GST-tagged KRAS-G12D (2-169) (P01116 2-169 isoform P01116-2 G12D): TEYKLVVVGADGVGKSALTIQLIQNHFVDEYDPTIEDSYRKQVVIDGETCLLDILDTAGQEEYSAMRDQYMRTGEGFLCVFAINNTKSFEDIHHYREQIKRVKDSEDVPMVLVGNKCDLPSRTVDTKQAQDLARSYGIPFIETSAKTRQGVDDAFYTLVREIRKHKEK

A word on the IC50: it is the concentration needed to halve the response being measured. For `CCN(c1nc(OC[C@@]23CCCN2C[C@H](F)C3)nc(N2CC3(C2)SCc2sc(N)c(C#N)c23)n1)C1(C#N)CC1` [Compound 238, 2-amino-1′-[4-[(1-cyanocyclopropyl)-ethyl-amino]-6-[[(2R,8S)-2-fluoro-1,2,3,5,6,7-hexahydropyrrolizin-8-yl]methoxy]-1,3,5-triazin-2-yl]spiro[6H-thieno[3,4-b]thiophene-4,3′-azetidine]-3-carbonitrile], the IC50 was 10 to 100 nM in assay [1], under 10 nM in assay [2] and under 10 nM in assay [3].
Take `N#Cc1c(N)sc2c1C1(CN(c3nc(OC[C@@]45CCCN4C[C@H](F)C5)nc(N4[C@H]5CC[C@]4(CO)COC5)n3)C1)SC2` [Compound 200, 2′-amino-1-(4-(((2R,7aS)-2-fluorotetrahydro-1H-pyrrolizin-7a(5H)-yl)methoxy)-6-((1S,5S)-1-(hydroxymethyl)-3-oxa-8-azabicyclo[3.2.1]octan-8-yl)-1,3,5-triazin-2-yl)-6′H-spiro[azetidine-3,4′-thieno[3,4-b]thiophene]-3′-carbonitrile]: the values for the IC50 in assay [1], in assay [2] and in assay [3] were 100 to 1000 nM, under 10 nM and 10 to 100 nM, respectively.
On to `CCN(CC#N)c1nc(OC[C@@]23CCCN2C[C@H](F)C3)nc(N2CC3(C2)SCc2sc(N)c(C#N)c23)n1` [Compound 237, 2-amino-1′-[4-[cyanomethyl(ethyl)amino]-6-[[(2R,8S)-2-fluoro-1,2,3,5,6,7-hexahydropyrrolizin-8-yl]methoxy]-1,3,5-triazin-2-yl]spiro[6H-thieno[3,4-b]thiophene-4,3′-azetidine]-3-carbonitrile], for which the IC50 in assay [1] was 10 to 100 nM; in assay [2], under 10 nM; in assay [3], under 10 nM.
On to `C[C@H](c1cccnc1N)N(C)c1nc(OC[C@@]23CCCN2C[C@H](F)C3)nc(N2CCC(c3c(Cl)sc(N)c3C#N)C2)n1` (stereo partly drawn) [Compound 191, 2-amino-4-[1-[4-[[(1R)-1-(2-amino-3-pyridyl)ethyl]-methyl-amino]-6-[[(2R,8S)-2-fluoro-1,2,3,5,6,7-hexahydropyrrolizin-8-yl]methoxy]-1,3,5-triazin-2-yl]pyrrolidin-3-yl]-5-chloro-thiophene-3-carbonitrile], for which the IC50 is 10 to 100 nM in assay [1], under 10 nM in assay [2] and 10 to 100 nM in assay [3].
`N#CCN(CC(F)F)c1nc(OC[C@@]23CCCN2C[C@H](F)C3)nc(N2CC3(C2)SCc2sc(N)c(C#N)c23)n1` [Compound 242, 2-amino-1′-[4-[cyanomethyl(2,2-difluoroethyl)amino]-6-[[(2R,8S)-2-fluoro-1,2,3,5,6,7-hexahydropyrrolizin-8-yl]methoxy]-1,3,5-triazin-2-yl]spiro[6H-thieno[3,4-b]thiophene-4,3′-azetidine]-3-carbonitrile]: the IC50 in assay [1] was 10 to 100 nM; in assay [2], under 10 nM; in assay [3], under 10 nM.
In the case of `N#Cc1c(N)sc2c1C1(CN(c3nc(OC[C@@]45CCCN4C[C@H](F)C5)nc(N4CC(O)NC(=O)C45CC5)n3)C1)SC2` (stereo partly drawn) [Compound 255, 2-amino-1′-[4-[[(2R,8S)-2-fluoro-1,2,3,5,6,7-hexahydropyrrolizin-8-yl]methoxy]-6-(6-hydroxy-8-oxo-4,7-diazaspiro[2.5]octan-4-yl)-1,3,5-triazin-2-yl]spiro[6H-thieno[3,4-b]thiophene-4,3′-azetidine]-3-carbonitrile], the half-maximal inhibitory concentration (IC50) in assay [1] was 1000 to 20000 nM; in assay [2], under 10 nM; in assay [3] it was under 10 nM.
For the molecule `CC(c1c[nH]nn1)N(CC#N)c1nc(OC[C@@]23CCCN2C[C@H](F)C3)nc(N2CC3(C2)SCc2sc(N)c(C#N)c23)n1` (stereo partly drawn) [Compound 250, 2-amino-1′-[4-[cyanomethyl-[1-(1H-triazol-4-yl)ethyl]amino]-6-[[(2R,8S)-2-fluoro-1,2,3,5,6,7-hexahydropyrrolizin-8-yl]methoxy]-1,3,5-triazin-2-yl]spiro[6H-thieno[3,4-b]thiophene-4,3′-azetidine]-3-carbonitrile], the IC50 in assay [1] was 100 to 1000 nM; in assay [2], under 10 nM; in assay [3], under 10 nM.
Turning to `C#CC(C)N(CC#N)c1nc(OC[C@@]23CCCN2C[C@H](F)C3)nc(N2CC3(C2)SCc2sc(N)c(C#N)c23)n1` (stereo partly drawn) [Compound 244, 2-amino-1′-[4-[cyanomethyl(1-methylprop-2-ynyl)amino]-6-[[(2R,8S)-2-fluoro-1,2,3,5,6,7-hexahydropyrrolizin-8-yl]methoxy]-1,3,5-triazin-2-yl]spiro[6H-thieno[3,4-b]thiophene-4,3′-azetidine]-3-carbonitrile], the IC50 was 100 to 1000 nM in assay [1], under 10 nM in assay [2] and under 10 nM in assay [3].
Turning to `N#CCN(Cc1c[nH]nn1)c1nc(OC[C@@]23CCCN2C[C@H](F)C3)nc(N2CC3(C2)SCc2sc(N)c(C#N)c23)n1` [Compound 245, 2-amino-1′-[4-[cyanomethyl(1H-triazol-4-ylmethyl)amino]-6-[[(2R,8S)-2-fluoro-1,2,3,5,6,7-hexahydropyrrolizin-8-yl]methoxy]-1,3,5-triazin-2-yl]spiro[6H-thieno[3,4-b]thiophene-4,3′-azetidine]-3-carbonitrile], the IC50 in assay [1] is 1000 to 20000 nM; in assay [2] it was under 10 nM; in assay [3] it was under 10 nM.
On to `CCN(c1nc(OC[C@@]23CCCN2C[C@H](F)C3)nc(N2CC3(C2)SCc2sc(N)c(C#N)c23)n1)[C@H](C)C#N` [Compound 236, 2-amino-1′-[4-[[(1R)-1-cyanoethyl]-ethyl-amino]-6-[[(2R,8S)-2-fluoro-1,2,3,5,6,7-hexahydropyrrolizin-8-yl]methoxy]-1,3,5-triazin-2-yl]spiro[6H-thieno[3,4-b]thiophene-4,3′-azetidine]-3-carbonitrile; formic acid], for which the IC50 in assay [1] is 10 to 100 nM; in assay [2] it was under 10 nM; in assay [3] it was under 10 nM.
Regarding `CCN(c1nc(OC[C@@]23CCCN2C[C@H](F)C3)nc(N2CC3(C2)SCc2sc(N)c(C#N)c23)n1)[C@H](C)C(N)=O` [Compound 235, (2R)-2-[[4-(2-amino-3-cyano-spiro[6H-thieno[3,4-b]thiophene-4,3′-azetidine]-1′-yl)-6-[[(2R,8S)-2-fluoro-1,2,3,5,6,7-hexahydropyrrolizin-8-yl]methoxy]-1,3,5-triazin-2-yl]-ethyl-amino]propanamide], the IC50 was 100 to 1000 nM in assay [1], under 10 nM in assay [2] and under 10 nM in assay [3].
For `N#Cc1c(N)sc2c1C1(CN(c3nc(OC[C@@]45CCCN4C[C@H](F)C5)nc(N(CCO)C4(C#N)CC4)n3)C1)SC2` (racemic) [Compound 240, 2-amino-1′-[4-[(1-cyanocyclopropyl)-(2-hydroxyethyl)amino]-6-[[rac-(2R,8S)-2-fluoro-1,2,3,5,6,7-hexahydropyrrolizin-8-yl]methoxy]-1,3,5-triazin-2-yl]spiro[6H-thieno[3,4-b]thiophene-4,3′-azetidine]-3-carbonitrile], the IC50 is 10 to 100 nM in assay [1], under 10 nM in assay [2] and under 10 nM in assay [3].
On to `CCN(CC1(C#N)CC1)c1nc(OC[C@@]23CCCN2C[C@H](F)C3)nc(N2CC3(C2)SCc2sc(N)c(C#N)c23)n1` [Compound 241, 2-amino-1′-[4-[(1-cyanocyclopropyl)methyl-ethyl-amino]-6-[[(2R,8S)-2-fluoro-1,2,3,5,6,7-hexahydropyrrolizin-8-yl]methoxy]-1,3,5-triazin-2-yl]spiro[6H-thieno[2,3-c]thiophene-4,3′-azetidine]-3-carbonitrile], for which the IC50 is 100 to 1000 nM in assay [1], under 10 nM in assay [2] and under 10 nM in assay [3].
